What was measured:
DU-145 (Prostate) = conditions: Prostate DU-145; reference 20; read-out: Cytotoxicity GI50; cited from earlier work
NCI-60 cancer cell lines = conditions: NCI-60 panel; reference 20; read-out: MGM (average GI50 across NCI-60 panel); cited from earlier work
SF-539 (CNS) = conditions: CNS SF-539; reference 20; read-out: Cytotoxicity GI50; cited from earlier work
HOP-62 (Lung) = conditions: Lung HOP-62; reference 20; read-out: Cytotoxicity GI50; cited from earlier work
CA-46 cells = assay: MTS single-dosage cell viability assay; type: cell-based; conditions: CA-46, 250 nM
Source text: (§1) Single-Dosage Cell Viability Assay in CA-46 and Raji Cells. CA-46 and Raji are both Myc-dependent and -overexpressing non-Hodgkin's lymphoma cell lines. Both cell lines overexpress Myc due to a translocation that inserts an IgH enhancer upstream to the Myc gene. Whereas CA-46's translocation eliminates the G-quadruplex-forming region in one allele, Raji's translocation preserves the G-quadruplex-forming regions in both alleles. Therefore, Raji would be more sensitive to G-quadruplex-mediated Myc inhibition than CA-46, which may be reflected in lower IC50 values for Raji than CA-46. To evaluate cell line selectivity, MTS single-dosage assays were conducted to compare the antiproliferative effects of 7-aza-8,9-methylenedioxyindenoisoquinolines on CA-46 and Raji cells at 250 nM drug concentration (FIG. 8). Average % viability values of CA-46 and Raji cells for each drug were presented in bar plots side-by-side.
(§2) MTS Cell Viability Single-dosage Assay. Drug solutions for the MTS single dosage assays were made from DMSO stocks by dilutions in 1×PBS. To set up treatments, drug solutions were plated in triplicates to a 96-well tissue culture plate and added with media containing CA46 or Raji 2000 cells/well. […] Cells were quantified the same way as in the IC50 assays. To obtain %-viability, A490 values were subtracted by blank, normalized to 100%-viability control, and averaged. […]

Raji cells = assay: MTS single-dosage cell viability assay; type: cell-based; conditions: 250 nM
Source text: as §1, §2

Structure (SMILES)	GI50 (DU-145 (Prostate))	GI50 (NCI-60 cancer cell lines)	GI50 (SF-539 (CNS))	GI50 (HOP-62 (Lung))	growth inhibition (% viability) (CA-46 cells)	growth inhibition (% viability) (Raji cells)
COc1cc2c3c(n(CCCNCCO)c(=O)c2cc1OC)-c1cc2c(cc1C3=O)OCO2 [LMP744]	< 10 nM	110 nM	40 nM	20 nM		
COc1cc2c3c(n(CCCN4CCOCC4)c(=O)c2cc1OC)-c1nc2c(cc1C3=O)OCO2 [G101, 2,3-Dimethoxy-6-(3-morpholinopropyl)-5H-[1,3]dioxolo[4″,5″:5′,6′]pyrido[3′,2′:4,5]cyclopenta[1,2-c]isoquinoline-5,12(6H)-dione]					did not show growth inhibition	did not show growth inhibition

Reference: patent US20240287089A1, “Preparation and Uses of 7-Azaindenoisoquinolines” (Purdue Research Foundation, priority 0001, published 2024)
